Data taken from patent US9532967B2, “Use of phenethyl caffeate derivatives in the preparation of a medicament against tumor angiogenesis” (priority 2010, dated 2017).

How the values were obtained:
[1] = tested on: angiogenesis model by culturing stromal cells and vascular endothlial cells (ECs) together; test: Tumor angiogenesis mediated by pericytes (stromal cells co-cultured with vascular endothlial cells); assay type: cell-based; conditions: for Length of the formed vessel network (Total Tube Length, TL, n = 8): control 436; for effect on tumor angiogenesis mediated by pericytes: concentrations of 50-100 μM, result in words
Procedure: We constructed an angiogenesis model by culturing stromal cells and vascular endothlial cells (ECs) together. Stromal cells and endothlial cells were graciously provided by Vascular Biology Medical Center of Medical School of the State University in Indiana. The stromal cells were implanted into a cell culture dish, maintaining cell density of 6×10^6/cm^2, and ECs were implanted on the trophoblast cells of the stromal cells after the stromal cells were incubated in the EBM-2/5% FBS culture medium for 3 hours, with cell density of ECs reaching 1×10^6/cm^2. The two kinds of cells were co-cultured in EBM-2/5% FBS culture medium for six days, then the formation of tubular vessels was observed, and EC vessels were labeled through CD31 fluorescence staining and horseradish peroxidase staining.
Then, the inhibition of compounds phenethyl caffeate and 3,4-diacetyl phenethyl caffeate with concentrations of 50-100 μM on tumor angiogenesis mediated by pericytes was studied.

[2] = tested on: human hepatocellular carcinoma BEL-7402 cell lines; test: Growth of tumors of BALB/c nude mice inoculated with BEL-7402 cells in vivo; conditions: 20 mg/kg by gavage, 3 weeks
Procedure: First, 1×10^6 cells of human hepatocellular carcinoma BEL-7402 cell lines were injected subcutaneously (sc) into the forelimbs of BALB/c male nude mice, and the mice with tumor were killed after the tumor was formed, the skin of the mice was cut off, and the complete tumor tissue was separated and removed, and then immersed into physiological saline and cut into pieces with diameter of 2 mm. The tumor tissue pieces were implanted subcutaneously into the forelimbs of nude mice in another group for drug experiments. The nude mice with tumor were randomly divided equally into an experimental group and control group, with 10 mice in each group. […] Experimental data, such as tumor size (i.e., long diameter a and short diameter b), experimental animal weight (g), etc., were recorded regularly, and photographs were taken. Measurement result was recorded every time, and the tumor volume and the ratio of tumor volume to tumor weight were calculated for each animal based on the measurement results.
Formula for calculating the tumor volume is: v=a×b2/2 (a represents the long diameter of the tumor and b represents the short diameter of the tumor, which are in unit of mm; and V is calculated in unit of mm^3). […]

[3] = tested on: vessel network model formed by culturing adult stem cells and vascular endothlial cells together; test: Formation of vessel network in vitro (adult stem cells co-cultured with vascular endothlial cells); assay type: cell-based, human; conditions: for lengths of the formed vessel networks (Total Tube Length, TL): co-culture six days
Procedure: First, we constructed a vessel network model formed by culturing adult stem cells and vascular endothlial cells together. Adult stem cells have the function of differentiating into pericytes, and can secrete cytokines required for angiogenesis to promote the formation of new vessels. The isolated and cultured adult stem cells were cultured using EGM medium for 3-6 generations to be used. The isolated and cultured human endothlial cells were derived from the cord blood of healthy infants (38-40 weeks), in which monocytes were removed by gradient centrifugation, and the cells were cultured in EGM medium to obtain primary vascular endothlial cells, and 4-8 generations were applied after passage. The adult stem cells were implanted into a cell culture dish, maintaining cell density of 6×10^6/cm^2, and the vascular endothlial cells were implanted on the trophoblast cells of the adult stem cells after the adult stem cells were incubated at 37° C., 5% CO2 for 3 hours, and the cell density of the vascular endothlial cells reached 1×10^6/cm^2. The two kinds of cells were co-cultured for six days, then the formation of tubular networks was observed, and the new vessel networks were labeled through CD31 fluorescence staining and horseradish peroxidase staining.
Different doses of 3,4-diacetyl phenethyl caffeate (prepared according to conventional chemical method by the Laboratory of Peking University Health Science center) were co-cultured with the in vitro vessel network system. […] However, there is no significant difference among the total numbers of ECs of CD31+ in respective groups. The total numbers of ECs in the control group, DMSO group, 5 μm group, 10 μm group, 20 μm group, 50 μm group and 100 μm group are 7.52±1.24/mm^2, 8.66±1.31/mm^2, 8.87±1.59/mm^2, 6.0±1.72/mm^2, 6.22±1.42/mm^2, […], 8.33±0.79/mm^2 respectively, and there is no significant difference among respective groups through analysis.

O=C(/C=C/c1ccc(O)c(O)c1)OCCc1ccccc1 [phenethyl caffeate]
Length of the formed vessel network (Total Tube Length, TL, n = 8) ([1]; 50 μM): 332 ± 24
Length of the formed vessel network (Total Tube Length, TL, n = 8) ([1]; 100 μM): 314 ± 27
effect on tumor angiogenesis mediated by pericytes [1]: no inhibitory effect

CC(=O)Oc1ccc(/C=C/C(=O)OCCc2ccccc2)cc1OC(C)=O [3,4-diacetyl phenethyl caffeate]
Length of the formed vessel network (Total Tube Length, TL, n = 8) ([1]; 50 μM): 114 ± 20
Length of the formed vessel network (Total Tube Length, TL, n = 8) ([1]; 100 μM): 20 ± 11
effect on tumor angiogenesis mediated by pericytes [1]: inhibitory effect
effect on tumor angiogenesis mediated by pericytes ([1]; listed as diacetyl phenethyl caffeate): significant inhibitory effect
effect on the growth of tumors ([2]; result in words): inhibitory effect
average tumor volume of the mice ([2]; six days every week, FIG. 2): maintained at the original level, with no significant changes
numbers of branchs (NB) of the vessels ([3]; 50 μM group): 0.13±0.026 /mm^2
lengths of the formed vessel networks (Total Tube Length, TL) ([3]; 50 μM group): 0.084±0.032 mm/mm^2
numbers of branchs (NB) of the vessels ([3]; 5 μm group): 6.12±0.48 /mm^2
total numbers of ECs (CD31+) ([3]; 5 μm group): 8.87±1.59 /mm^2
lengths of the formed vessel networks (Total Tube Length, TL) ([3]; 5 μm group): 2.802±0.212 mm/mm^2
numbers of branchs (NB) of the vessels ([3]; 10 μm group): 1.55±0.17 /mm^2
total numbers of ECs (CD31+) ([3]; 10 μm group): 6.0±1.72 /mm^2
lengths of the formed vessel networks (Total Tube Length, TL) ([3]; 10 μm group): 0.874±0.117 mm/mm^2
numbers of branchs (NB) of the vessels ([3]; 20 μm group): 0.50±0.063 /mm^2
total numbers of ECs (CD31+) ([3]; 20 μm group): 6.22±1.42 /mm^2
lengths of the formed vessel networks (Total Tube Length, TL) ([3]; 20 μm group): 0.337±0.89 mm/mm^2
numbers of branchs (NB) of the vessels ([3]; 100 μm group): 0.04±0.001 /mm^2
total numbers of ECs (CD31+) ([3]; 100 μm group): 8.33±0.79 /mm^2
lengths of the formed vessel networks (Total Tube Length, TL) ([3]; 100 μm group): 0.0054±0.002 mm/mm^2
effect on the formation of vessel networks in vitro ([3]; result in words): inhibitory effect
